Source: PubChem BioAssay (NCI)
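In this assay, cells in 96-well plates receive the compound at five concentrations for 48 hours. Endpoints are linearly interpolated between the surrounding concentrations. At the GI50, growth is halved. Definition used: TGI = concentration required for complete inhibition of growth.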

Tests used:
Experiment in all cases: growth of human tumour cells (NCI), 48 h
MDA-MB-468 breast = tested on: MDA-MB-468 breast
HS 578T breast = tested on: HS 578T breast
LOX IMVI melanoma = tested on: LOX IMVI melanoma
MALME-3M melanoma = tested on: MALME-3M melanoma
RXF 393 renal = tested on: RXF 393 renal
HCT-116 colon = tested on: HCT-116 colon
OVCAR-8 ovarian = tested on: OVCAR-8 ovarian
UO-31 renal = tested on: UO-31 renal
SR leukemia = tested on: SR leukemia
BT-549 breast = tested on: BT-549 breast
PC-3 prostate = tested on: PC-3 prostate
SK-MEL-2 melanoma = tested on: SK-MEL-2 melanoma
MCF7 breast = tested on: MCF7 breast
COLO 205 colon = tested on: COLO 205 colon
786-0 renal = tested on: 786-0 renal
SK-MEL-5 melanoma = tested on: SK-MEL-5 melanoma
TK-10 renal = tested on: TK-10 renal
SN12C renal = tested on: SN12C renal
NCI-H522 lung = tested on: NCI-H522 lung
NCI-H226 lung = tested on: NCI-H226 lung
ACHN renal = tested on: ACHN renal
IGROV1 ovarian = tested on: IGROV1 ovarian
A498 renal = tested on: A498 renal
A549 NSCLC = tested on: A549 NSCLC
EKVX NSCLC = tested on: EKVX NSCLC
RPMI-8226 leukemia = tested on: RPMI-8226 leukemia
OVCAR-3 ovarian = tested on: OVCAR-3 ovarian
HOP-92 NSCLC = tested on: HOP-92 NSCLC
MDA-MB-435 = tested on: MDA-MB-435
SF-539 CNS = tested on: SF-539 CNS
DU-145 prostate = tested on: DU-145 prostate
SK-OV-3 ovarian = tested on: SK-OV-3 ovarian
CCRF-CEM leukemia = tested on: CCRF-CEM leukemia
HL-60(TB) leukemia = tested on: HL-60(TB) leukemia
M14 melanoma = tested on: M14 melanoma
T-47D breast = tested on: T-47D breast
NCI-H23 lung = tested on: NCI-H23 lung
UACC-62 melanoma = tested on: UACC-62 melanoma
SF-268 CNS = tested on: SF-268 CNS
OVCAR-4 ovarian = tested on: OVCAR-4 ovarian
HCT-15 colon = tested on: HCT-15 colon
UACC-257 melanoma = tested on: UACC-257 melanoma
MDA-MB-231 breast = tested on: MDA-MB-231 breast
HOP-62 NSCLC = tested on: HOP-62 NSCLC
SK-MEL-28 melanoma = tested on: SK-MEL-28 melanoma
KM12 colon = tested on: KM12 colon
SNB-19 CNS = tested on: SNB-19 CNS
SF-295 CNS = tested on: SF-295 CNS
MOLT-4 leukemia = tested on: MOLT-4 leukemia
CAKI-1 renal = tested on: CAKI-1 renal
OVCAR-5 ovarian = tested on: OVCAR-5 ovarian

Compound `COC(=O)/C=C/c1cc(OC(C)=O)c2c(c1)C(C(=O)OC)C(c1ccc(OC(C)=O)c(OC(C)=O)c1)O2` (stereo unspecified) has a GI50 (MDA-MB-468 breast) of 1.2 µM and a TGI (MDA-MB-468 breast) of 17.8 µM.
`COc1ccc(-c2cc(=O)oc3c4c(ccc23)OCN(Cc2ccc(F)cc2)C4)cc1` showed a GI50 (MDA-MB-468 breast) of 15.7 µM and a TGI (MDA-MB-468 breast) of 36.3 µM.
`C=C(C)[C@@H]1CC[C@]2(CN)CC[C@]3(C)[C@H](CC[C@@H]4[C@@]5(C)CCCNC(C)(C)[C@@H]5CC[C@]43C)[C@@H]12` gave a GI50 (MDA-MB-468 breast) of 1.75 µM and a TGI (MDA-MB-468 breast) of 3.52 µM.
`CCN(Cc1c(F)cccc1OC)c1ccc(CO)c(Cl)c1` gave a GI50 (MDA-MB-468 breast) of 0.0285 µM and a TGI (MDA-MB-468 breast) of 0.144 µM.
For `CC[C@]1(O)C[C@H]2CN(CCc3c([nH]c4ccccc34)C(C(=O)OC)(c3cc4c(cc3OC)N(C)[C@H]3[C@@](O)(C(=O)OC)[C@H](OC(C)=O)[C@]5(CC)[C@@H]6C[C@@H]6CN6CC[C@]43[C@@H]65)C2)C1` (stereo partly specified), the GI50 (MDA-MB-468 breast) was 0.00285 µM and the TGI (MDA-MB-468 breast) was 0.00917 µM.
With `COc1ccc(/C=C\c2cc(OC)c(OC)c(OC)c2)cc1OCC(=O)O` the GI50 (MDA-MB-468 breast) was 49.3 µM and the TGI (MDA-MB-468 breast) was > 100 µM.
With `CCCCCCn1c(-c2ccc(C(=O)O/N=C(\N)c3ccc4c(c3)OCO4)cc2)nc(-c2ccccc2)c1-c1ccccc1` the GI50 (MDA-MB-468 breast) was 2.11 µM and the TGI (MDA-MB-468 breast) was 5.62 µM.
With `O=C(Nc1nc(-c2c[nH]c3ccccc23)cs1)c1n[nH]c(=O)c2ccccc12` the GI50 (MDA-MB-468 breast) was 77.9 µM and the TGI (MDA-MB-468 breast) was > 100 µM.
With `COc1ccc(CNc2c3ccccc3nc3ccccc23)cc1F` the GI50 (MDA-MB-468 breast) was 1.86 µM and the TGI (MDA-MB-468 breast) was 4.81 µM.
Work on `Cc1cccc(NC2=C(Cl)C(=O)c3nc(C)ccc3C2=O)c1` yielded a GI50 (MDA-MB-468 breast) of 1.27 µM and a TGI (MDA-MB-468 breast) of 2.89 µM.
In the case of `Nc1c(C(=O)Nc2ccccn2)sc2nc3c(cc12)C(=O)CCC3`, the GI50 (MDA-MB-468 breast) is reported as 0.269 µM and the TGI (MDA-MB-468 breast) is reported as 67.3 µM.
`CCOC(=O)c1c(C)c2c(n1Cc1ccccc1)CSCC2=O` was tested, and the GI50 (MDA-MB-468 breast) was 23.3 µM and the TGI (MDA-MB-468 breast) was > 100 µM.
With `COc1ccc2[nH]cc(-c3cc4nc(-c5cn(C)c6ncccc56)cc(N)n4n3)c2c1` the GI50 (HS 578T breast) was 20.3 µM, the TGI (HS 578T breast) was 64.6 µM and the GI50 (LOX IMVI melanoma) was 2.02 µM. It also gave a TGI (LOX IMVI melanoma) of 3.6 µM, a GI50 (MALME-3M melanoma) of 5.02 µM and a TGI (MALME-3M melanoma) of 18.3 µM. It also gave a GI50 (RXF 393 renal) of 1.67 µM, a TGI (RXF 393 renal) of 3.27 µM and a GI50 (HCT-116 colon) of 3.6 µM. The TGI (HCT-116 colon) was 33.5 µM, the GI50 (OVCAR-8 ovarian) was 4.93 µM and the TGI (OVCAR-8 ovarian) was > 100 µM. It also gave a GI50 (UO-31 renal) of 3.59 µM, a TGI (UO-31 renal) of 17.5 µM and a GI50 (SR leukemia) of 2.55 µM. For the same compound, the TGI (SR leukemia) was > 100 µM, the GI50 (BT-549 breast) was 7.03 µM and the TGI (BT-549 breast) was 38.3 µM. The GI50 (PC-3 prostate) was 6.67 µM, the TGI (PC-3 prostate) was > 100 µM and the GI50 (SK-MEL-2 melanoma) was 19.3 µM. It also gave a TGI (SK-MEL-2 melanoma) of 53.2 µM, a GI50 (MCF7 breast) of 2.01 µM and a TGI (MCF7 breast) of 4.94 µM. The GI50 (COLO 205 colon) was 4.71 µM, the TGI (COLO 205 colon) was > 100 µM and the GI50 (786-0 renal) was 1.54 µM. The TGI (786-0 renal) was 2.92 µM, the GI50 (SK-MEL-5 melanoma) was 6.18 µM and the TGI (SK-MEL-5 melanoma) was 19.3 µM. For the same compound, the GI50 (MDA-MB-468 breast) was 1.53 µM, the TGI (MDA-MB-468 breast) was 3.12 µM and the GI50 (TK-10 renal) was 19.1 µM. For the same compound, the TGI (TK-10 renal) was > 100 µM, the GI50 (SN12C renal) was 6.93 µM and the TGI (SN12C renal) was 23.8 µM. The GI50 (NCI-H522 lung) was 4.48 µM, the TGI (NCI-H522 lung) was > 100 µM and the GI50 (NCI-H226 lung) was 20.4 µM. The TGI (NCI-H226 lung) was 57.2 µM, the GI50 (ACHN renal) was 3.48 µM and the TGI (ACHN renal) was 12.5 µM. For the same compound, the GI50 (IGROV1 ovarian) was 2.12 µM, the TGI (IGROV1 ovarian) was 4.93 µM and the GI50 (A498 renal) was 25.3 µM. The TGI (A498 renal) was 49.4 µM, the GI50 (A549 NSCLC) was 2.75 µM and the TGI (A549 NSCLC) was > 100 µM. The GI50 (EKVX NSCLC) was 8.55 µM, the TGI (EKVX NSCLC) was 62.3 µM and the GI50 (RPMI-8226 leukemia) was 3.05 µM. For the same compound, the TGI (RPMI-8226 leukemia) was > 100 µM, the GI50 (OVCAR-3 ovarian) was 12.5 µM and the TGI (OVCAR-3 ovarian) was > 100 µM. It also gave a GI50 (HOP-92 NSCLC) of 4.84 µM, a TGI (HOP-92 NSCLC) of 51.7 µM and a GI50 (MDA-MB-435) of 10.8 µM. It also gave a TGI (MDA-MB-435) of 27.8 µM, a GI50 (SF-539 CNS) of 1.63 µM and a TGI (SF-539 CNS) of 3.05 µM. For the same compound, the GI50 (DU-145 prostate) was 6.36 µM, the TGI (DU-145 prostate) was > 100 µM and the GI50 (SK-OV-3 ovarian) was 52.8 µM. For the same compound, the TGI (SK-OV-3 ovarian) was > 100 µM, the GI50 (CCRF-CEM leukemia) was 2.56 µM and the TGI (CCRF-CEM leukemia) was > 100 µM. The GI50 (HL-60(TB) leukemia) was 1.48 µM, the TGI (HL-60(TB) leukemia) was 4.78 µM and the GI50 (M14 melanoma) was 4.56 µM. It also gave a TGI (M14 melanoma) of 32.3 µM, a GI50 (T-47D breast) of 5.77 µM and a TGI (T-47D breast) of 90.1 µM. The GI50 (NCI-H23 lung) was 6.29 µM, the TGI (NCI-H23 lung) was 24.7 µM and the GI50 (UACC-62 melanoma) was 14.2 µM. The TGI (UACC-62 melanoma) was 27.8 µM, the GI50 (SF-268 CNS) was 13.5 µM and the TGI (SF-268 CNS) was > 100 µM. For the same compound, the GI50 (OVCAR-4 ovarian) was 2.06 µM, the TGI (OVCAR-4 ovarian) was 5.15 µM and the GI50 (HCT-15 colon) was 1.91 µM. It also gave a TGI (HCT-15 colon) of 4.53 µM, a GI50 (UACC-257 melanoma) of 21.5 µM and a TGI (UACC-257 melanoma) of 55.4 µM. The GI50 (MDA-MB-231 breast) was 2.33 µM, the TGI (MDA-MB-231 breast) was 5.2 µM and the GI50 (HOP-62 NSCLC) was 10.2 µM. The TGI (HOP-62 NSCLC) was > 100 µM, the GI50 (SK-MEL-28 melanoma) was 10.8 µM and the TGI (SK-MEL-28 melanoma) was 23.4 µM. For the same compound, the GI50 (KM12 colon) was 3.41 µM, the TGI (KM12 colon) was > 100 µM and the GI50 (SNB-19 CNS) was 8.67 µM. For the same compound, the TGI (SNB-19 CNS) was 32.2 µM, the GI50 (SF-295 CNS) was 1.68 µM and the TGI (SF-295 CNS) was 3.26 µM. The GI50 (MOLT-4 leukemia) was 1.79 µM, the TGI (MOLT-4 leukemia) was > 100 µM and the GI50 (CAKI-1 renal) was 4.03 µM. It also gave a TGI (CAKI-1 renal) of 23.5 µM, a GI50 (OVCAR-5 ovarian) of 4.66 µM and a TGI (OVCAR-5 ovarian) of 19.2 µM.
